Source: patent publication US11976083B2, “Inhibitors of peptidylarginine deiminases” (Gilead Sciences, Inc., priority 2020, dated 2024)

target: T1, human PAD4 (Homo sapiens, UniProt Q9UM07); assay: In vitro PAD4 BAEE biochemical assay; conditions: BAEE substrate 3 mM, 5 nM PAD4, 2 mM calcium chloride; geometric mean of multiple experiments
T1 construct: human PAD4 (NM_012387), A2-P663, was PCR amplified; His-SUMO (N, cleaved yes); made in house; host or cells: E. coli BL21(DE3)
In short: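 Assay was run at 25 °C using 3 mM BAEE and 5 nM human PAD4 after a 30 min compound preincubation; ammonia produced over 2 h was quantified by OPA-derived fluorescence. Full inhibition was defined by 50 µM BB-Cl-Amidine, and IC50 came from variable-slope nonlinear regression.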

T1 sequence (Q9UM07 2-663): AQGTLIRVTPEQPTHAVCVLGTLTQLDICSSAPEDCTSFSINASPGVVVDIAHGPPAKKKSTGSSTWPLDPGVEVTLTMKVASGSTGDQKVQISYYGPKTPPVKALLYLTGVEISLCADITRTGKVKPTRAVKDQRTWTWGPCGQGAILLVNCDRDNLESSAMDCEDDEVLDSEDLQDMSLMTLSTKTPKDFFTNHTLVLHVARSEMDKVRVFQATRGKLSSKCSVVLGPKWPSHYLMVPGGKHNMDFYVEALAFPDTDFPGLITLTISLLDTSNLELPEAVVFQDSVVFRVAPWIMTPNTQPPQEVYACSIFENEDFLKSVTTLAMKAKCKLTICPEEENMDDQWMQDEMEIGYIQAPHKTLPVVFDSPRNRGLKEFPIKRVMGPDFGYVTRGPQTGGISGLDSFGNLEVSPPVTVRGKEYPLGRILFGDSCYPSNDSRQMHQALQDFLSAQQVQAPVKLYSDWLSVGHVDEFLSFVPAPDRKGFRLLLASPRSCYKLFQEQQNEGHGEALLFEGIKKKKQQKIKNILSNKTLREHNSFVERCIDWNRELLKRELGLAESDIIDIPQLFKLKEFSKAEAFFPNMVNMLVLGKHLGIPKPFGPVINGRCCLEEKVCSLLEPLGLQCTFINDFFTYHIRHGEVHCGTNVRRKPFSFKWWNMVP

| IC50 | Compound |
| --- | --- |
| 7 nM | COc1cc(C(=O)N2[C@H]3CC[C@@H]2[C@H](N)C3)cc2nc(-c3cc4ccc5nc4n3CCCCCCCC(=O)N[C@@H]5C)n(C)c12 [Example 285, (11~{R})-17-[5-[(1~{R},2~{R},4~{S})-2-amino-7-azabicyclo[2.2.1]heptane-7-carbonyl]-7-methoxy-1-methyl-benzimidazol-2-yl]-11-methyl-1,10,19-triazatricyclo[10.5.2.0^{15,18}]nonadeca-12(19),13,15(18),16-tetraen-9-one] |
| 122 nM | C[C@H]1NC(=O)C(C)(C)CCCCCCn2c(-c3nc4cc(C(=O)N[C@H]5CNCC[C@@H]5F)c(F)cc4n3CC(F)F)cc3ccc1nc32 [Example 418, 1-(2,2-difluoroethyl)-6-fluoro-~{N}-[(3~{S},4~{S})-4-fluoro-3-piperidyl]-2-[(11~{R})-8,8,11-trimethyl-9-oxo-1,10,19-triazatricyclo[10.5.2.0^{15,18}]nonadeca-12(19),13,15(18),16-tetraen-17-yl]benzimidazole-5-carboxamide] |
| 122 nM | COc1cc(C(=O)N2[C@H]3CC[C@@H]2[C@H](N)C3)cc2nc(-c3cc4ccc5cc4n3CCCCCCNC(=O)c3ncccc3-5)n(C)c12 [Example 98, 17-[5-[(1~{R},2~{R},4~{S})-2-amino-7-azabicyclo[2.2.1]heptane-7-carbonyl]-7-methoxy-1-methyl-benzimidazol-2-yl]-6,9,16-triazatetracyclo[14.5.2.0^{2,7}.0^{19,23}] tricosa-1(22),2,4,6,17,19(23),20-heptaen-8-one] |
| 83 nM | COc1cc(C(=O)N2CC[C@@H](OC)[C@@H](N)C2)cc2nc(-c3cc4ccc5nc4n3CCCCCc3cnccc3C(=O)N[C@@H]5C)n(C)c12 [Example 358, (2~{R})-17-[5-[(3~{S},4~{R})-3-amino-4-methoxy-piperidine-1-carbonyl]-7-methoxy-1-methyl-benzimidazol-2-yl]-2-methyl-3,8,16,22-tetrazatetracyclo[14.5.2.0^{5,10}.0^{19,23}] tricosa-1(22),5,7,9,17,19(23),20-heptaen-4-one] |
| 19 nM | C[C@@H]1[C@H](N)CCCN1C(=O)c1cc(F)c2c(c1)nc(-c1cc3ccc4nc3n1CCCCCc1nc3ccccc3cc1C(=O)N[C@@H]4C)n2C1CC1 [Example 830, (2~{R})-21-[5-[(2~{R}, 3~{R})-3-amino-2-methyl-piperidine-1-carbonyl]-1-cyclopropyl-7-fluoro-benzimidazol-2-yl]-2-methyl-3,13,20,26-tetrazapentacyclo[18.5.2.0^ {5,14}.0^{7,12}.0^ {23,27}]heptacosa-1(26),5(14),6,8,10,12,21, 23(27),24-nonaen-4-one] |
| 84 nM | COc1cc(C(=O)N2CCC[C@@H](N)C2)cc2nc(-c3cc4ccc5nc4n3CCCCCCC(C)(C)C(=O)N[C@@H]5C)n(C3CC3)c12 [Example 230, (11~{R})-17-[5-[(3~{R})-3-aminopiperidine-1-carbonyl]-1-cyclopropyl-7-methoxy-benzimidazol-2-yl]-8,8,11-trimethyl-1,10,19-triazatricyclo[10.5.2.0^{15,18}]nonadeca-12(19),13,15(18),16-tetraen-9-one] |
| 51 nM | COc1cc(C(=O)N2C[C@H](N)[C@@H]3CC[C@H]2C3)cc2nc(-c3cc4ccc5nc4n3CCCCCc3cc4ccccc4nc3C(=O)N[C@@H]5C)n(C)c12 [Example 461, (2~{R})-21-[5-[(1~{S},4~{R},5~{R})-4-amino-2-azabicyclo[3.2.1]octane-2-carbonyl]-7-methoxy-1-methyl-benzimidazol-2-yl]-2-methyl-3,6,20,26-tetrazapentacyclo[18.5.2.0^ {5,14}.0^{7,12}.0^ {23,27}]heptacosa-1(26),5(14),6,8,10,12,21,23(27),24-nonaen-4-one] |
| 44 nM | C[C@H]1NC(=O)c2ccc(Cl)nc2CCCCCn2c(-c3nc4cc(C(=O)N5C[C@H](N)[C@@H]6CC[C@H]5C6)cc(F)c4n3[C@@H]3C[C@H]3F)cc3ccc1nc32 [Example 473, (2~{R})-17-[5-[(1~{S},4~{R},5~{R})-4-amino-2-azabicyclo[3.2.1]octane-2-carbonyl]-7-fluoro-1-[(1~{R},2~{R})-2-fluorocyclopropyl]benzimidazol-2-yl]-8-chloro-2-methyl-3,9,16,22-tetrazatetracyclo[14.5.2.0^{5,10}.0^{19,23}] tricosa-1(22),5(10),6,8,17,19(23),20-heptaen-4-one] |
| 108 nM | COc1cc(C(=O)N2CC[C@@H](OC(F)F)[C@@H](N)C2)cc2nc(-c3cc4ccc5nc4n3CCCCCCC3(COC3)C(=O)N[C@@H]5C)n(C)c12 [Example 613, (11~{R})-17-[5-[(3~{S},4~{R})-3-amino-4-(difluoromethoxy)piperidine-1-carbonyl]-7-methoxy-1-methyl-benzimidazol-2-yl]-11-methyl-spiro[1,10,19-triazatricyclo[10.5.2.0^ {15,18}]nonadeca-12,14,16,18-tetraene-8,3′-oxetane]-9-one] |
| 453 nM | COc1cc(C(=O)N2CC[C@H]3CCCN[C@H]3C2)cc2nc(-c3cc4ccc5nc4n3CCCCCCC3(CC3)C(=O)N[C@@H]5C)n(C)c12 [Example 260, (11~{R})-17-[5-[(4~{a}~{R},8~{a}~{R})-2,3,4,4~{a},5,6,8,8~{a}-octahydro-1~{H}-1,7-naphthyridine-7-carbonyl]-7-methoxy-1-methyl-benzimidazol-2-yl]-11-methyl-spiro[1,10,19-triazatricyclo[10.5.2.0^{15,18}]nonadeca-12(19),13,15(18),16-tetraene-8,1′-cyclopropane]-9-one] |
| 151 nM | COc1cc(C(=O)N2C[C@H](N)[C@@H]3CC[C@H]2C3)cc2nc(-c3cc4ccc5nc4n3CCCCCCCCN(C(C)=O)[C@@H]5C)n(C)c12 [Example 908] |
| 17 nM | C[C@H]1NC(=O)c2c(ccc3cccnc23)CCCCCn2c(-c3nc4cc(C(=O)N5C[C@H](N)[C@@H]6CC[C@H]5C6)cc(F)c4n3C3CC3)cc3ccc1nc32 [Example 841, (2~{R})-21-[5-[(1~{S},4~{R}, 5~{R})-4-amino-2-azabicyclo [3.2.1]octane-2-carbonyl]-1-cyclopropyl-7-fluoro-benzimidazol-2-yl]-2-methyl-3,7,20,26-tetrazapentacyclo [18.5.2.0^{5,14}.0^{6,1 1}.0^{23,27}]heptacosa-1(26),5(14),6(11),7,9,12,21, 23(27),24-nonaen-4-one] |
| 23 nM | (2~{R})-17-[5-[(1~{S),4~{R}, 5~{R})-4-amino-2-azabicyclo [3.2.1]octane-2-carbonyl]-1- cyclopropyl-benzimidazol-2- yl]-8-chloro-2-methyl-3,9,16,22- tetrazatetracyclo[14.5.2.0^ {5,10}.0^{19,23}]tricosa- 1(22),5(10),6,8,17,19(23),20- heptaen-4-one [Example 926] |
| 277 nM | COCCn1c(-c2cc3ccc4nc3n2CCCCCc2nccnc2C(=O)N[C@@H]4C)nc2cc(C(=O)N3CC[C@@H](OC)[C@@H](N)C3)cc(OC)c21 [Example 510, (2~{R})-17-[5-[(3~ {S),4~{R})-3-amino-4-methoxy-piperidine-1-carbonyl]-7-methoxy-1-(2-methoxyethyl)benzimidazol-2-yl]-2-methyl-3,6,9,16,22-pentazatetracyclo[14.5.2.0^ {5,10}.0^{19,23}] tricosa-1(22),5(10),6,8,17,19 (23),20-heptaen-4-one] |
| 19 nM | COc1cc(C(=O)N2C[C@H](N)[C@@H]3CC[C@H]2C3)cc2nc(-c3cc4ccc5nc4n3CCCCC[C@]3(F)C[C@H]3C(=O)N[C@@H]5C)n(C3CC3)c12 [Example 816, (2~{R},5~{S},7~{S})-14-[5-[(1~{S},4~{R},5~{R})-4-amino-2-azabicyclo[3.2.1]octane-2-carbonyl]-1-cyclopropyl-7-methoxy-benzimidazol-2-yl]-7-fluoro-2-methyl-3,13,19-triazatetracyclo[11.5.2.0^ {5,7}.0^{16,20}]icosa-1 (18),14,16,19-tetraen-4-one] |
| 117 nM | CO[C@@H]1CCN(C(=O)c2cnc3c(c2)nc(-c2cc4ccc5nc4n2CCCCC[C@@H]2C[C@H]2C(=O)N[C@@H]5C)n3C2CC2)C[C@@H]1N [Example 574, (2~{R},5~{R},7~{R})-14-[6-[(3~{S},4~{R})-3-amino-4-methoxy-piperidine-1-carbonyl]-3-cyclopropyl-imidazo [4,5-b]pyridin-2-yl]-2-methyl-3,13,19-triazatetracyclo [11.5.2.0^{5,7}.0^{16,20}] icosa-1(19),14,16(20),17-tetraen-4-one] |
| 90 nM | C[C@H]1NC(=O)C(C)(C)OCCCCCn2c(-c3nc4cc(C(=O)N[C@H]5CNCC[C@@H]5F)c(F)cc4n3C3CC3)cc3ccc1nc32 [Example 540, 1-cyclopropyl-6-fluoro-~{N}-[(3~{S},4~{S})-4-fluoro-3-piperidyl]-2-[(11~{R})-8,8,11-trimethyl-9-oxo-7-oxa-1,10,19-triazatricyclo[10.5.2.0^ {15,18}]nonadeca-12(19),13,15(18),16-tetraen-17-yl] benzimidazole-5-carboxamide] |
| 32 nM | COc1cc(C(=O)N2[C@H]3CC[C@@H]2[C@H](N)C3)cc2nc(-c3cc4ccc5nc4n3C[C@H]3C[C@@H]3COCCC(=O)N[C@@H]5C)n(C)c12 [Example 217, (3~{S},5~{S},12~{R})-18-[5-[(1~{R},2~{R},4~{S})-2-amino-7-azabicyclo[2.2.1]heptane-7-carbonyl]-7-methoxy-1-methyl-benzimidazol-2-yl]-12-methyl-7-oxa-1,11,20-triazatetracyclo[11.5.2.0^{3,5}.0^{16,19}] icosa-13(20),14,16(19),17-tetraen-10-one] |
| 32 nM | CO[C@@H]1CCN(C(=O)c2cc(F)c3c(c2)nc(-c2cc4ccc5nc4n2CCCCCc2cncc(F)c2C(=O)N[C@@H]5C)n3C2CC2)C[C@@H]1N [Example 662, (2~{R})-17-[5-[(3~{S},4~ {R})-3-amino-4-methoxy-piperidine-1-carbonyl]-1-cyclopropyl-7-fluoro-benzimidazol-2-yl]-6-fluoro-2-methyl-3,8,16,22-tetrazatetracyclo[14.5.2.0^ {5,10}.0^{19,23}] tricosa-1(22),5,7,9,17,19(23), 20-heptaen-4-one] |
